Activity calls are given as the source filed them. No cut-off for these calls is given here.
Legend:
[1] = Acute toxicity in po dosed mouse; format: organism-based; settings: in vivo
Canis familiaris = assay: Antianxiety activity in po dosed dog assessed as ataxia administered as single dose measured up to 24 hrs; format: functional; settings: Canis lupus familiaris, read-out: MED
Rhesus monkey = assay: Antianxiety activity in po dosed rhesus monkey assessed as antiagressive behavior measured every hour post dosing; format: functional; settings: Macaca mulatta, read-out: MED
Rattus norvegicus [2] = assay: Antihypertensive activity in spontaneously hypertensive rat model assessed as reduction in blood pressure at 3 mg/kg, po after 3 hrs; format: functional; set-up: scale not given: the % may be the effect or the level left
Rattus norvegicus [3] = assay: Antihypertensive activity in spontaneously hypertensive rat model assessed as reduction in blood pressure at 3 mg/kg, po after 24 hrs; format: functional; set-up: scale not given: the % may be the effect or the level left
Rattus norvegicus [4] = assay: Antihypertensive activity in spontaneously hypertensive rat model assessed as reduction in blood pressure at 0.3 mg/kg, po after 3 hrs; format: functional; set-up: scale not given: the % may be the effect or the level left
Rattus norvegicus [5] = assay: Antianxiety activity in Long-Evans rat assessed as reduction in motor activity at 5 mg/kg, po after 2 hrs relative to vehicle-treated control; format: functional; set-up: scale not given: the % may be the effect or the level left
Felis catus [6] = assay: Hypnotic activity in cat assessed as increase in total sleep time at 0.5 mg/kg administered orally through diet measured for 12 hrs by EEG analysis; format: functional; settings: route oral
Mus musculus [7] = assay: Antianxiety activity in albino BALB/cJ mouse assessed as reduction in footshock-induced fighting behavior at 5 mg/kg, po after 30 to 90 mins; format: functional; set-up: scale not given: the % may be the effect or the level left
Rattus norvegicus [8] = assay: Antipsychotic activity in rat assessed as reduction of methamphetamine-induced hyperactivity at 5 mg/kg, po administered prior to methamphetamine challenge relative to vehicle-treated control; format: functional; set-up: scale not given: the % may be the effect or the level left
Mus musculus [9] = assay: Analgesic activity in po dosed mouse assessed as inhibition of acetic acid-induced writhing administered 30 mins prior to acetic acid challenge measured after 5 mins for 20 mins; format: functional
Rattus norvegicus [10] = assay: Antidiarrheal activity in Charles River rat assessed as inhibition of castor oil-induced diarrhea by measuring protected animals at 0.2 mg/kg, po administered 1 hr prior to castor oil challenge measured after 1 hr relative to vehicle-treated control; format: functional
Mus musculus [11] = assay: Antianxiety activity in albino BALB/cJ mouse assessed as reduction in footshock-induced fighting behavior at 10 mg/kg, po after 30 to 90 mins; format: functional; set-up: scale not given: the % may be the effect or the level left
Rattus norvegicus [12] = assay: Antipsychotic activity in rat assessed as reduction of methamphetamine-induced hyperactivity at 2.5 mg/kg, po administered prior to methamphetamine challenge relative to vehicle-treated control; format: functional; set-up: scale not given: the % may be the effect or the level left
Rattus norvegicus [13] = assay: Analgesic activity in po dosed Sprague-Dawley rat after 15 to 90 mins by tail flick test; format: functional
Felis catus [14] = assay: Hypnotic activity in cat assessed as increase in non-REM sleep time at 0.5 mg/kg administered orally through diet measured for 12 hrs by EEG analysis; format: functional; settings: route oral
Rattus norvegicus [15] = assay: Antidiarrheal activity in Charles River rat assessed as inhibition of castor oil-induced diarrhea by measuring protected animals at 0.1 mg/kg, po administered 1 hr prior to castor oil challenge measured after 1 hr relative to vehicle-treated control; format: functional
Mus musculus [16] = assay: Anticonvulsant activity in po dosed mouse assessed as dose required to protect 80% of animal measured after 1 to 4 hrs by audiogenic seizure test; format: functional
Rattus norvegicus [17] = assay: Antihypertensive activity in spontaneously hypertensive rat model assessed as reduction in blood pressure at 0.3 mg/kg, po after 24 hrs; format: functional; set-up: scale not given: the % may be the effect or the level left
Rattus norvegicus [18] = assay: Antihypertensive activity in spontaneously hypertensive rat model assessed as reduction in blood pressure at 10 mg/kg, po after 24 hrs; format: functional; set-up: scale not given: the % may be the effect or the level left
Rattus norvegicus [19] = assay: Antiulcer activity in albino Sprague-Dawley rat shay ulcer model assessed as ulcer index scores at 20 mg/kg administered intraduodenally post pyloric ligation measured after 18.5 hrs relative to vehicle-treated control; format: functional
Rattus norvegicus [20] = assay: Antisecretory activity in Sprague-Dawley rat assessed as decrease in pepsin output at 50 mg/kg, po administered 30 mins prior to pylorus ligation measured after 4 hrs relative to control; format: functional; set-up: scale not given: the % may be the effect or the level left
Rattus norvegicus [21] = assay: Antisecretory activity in Sprague-Dawley rat assessed as decrease in acidity at 50 mg/kg, po administered 30 mins prior to pylorus ligation measured after 4 hrs relative to control; format: functional; set-up: scale not given: the % may be the effect or the level left
Felis catus [22] = assay: Hypnotic activity in cat assessed as increase in total sleep time at 0.25 mg/kg administered orally through diet measured for 12 hrs by EEG analysis; format: functional; settings: route oral
Rattus norvegicus [23] = assay: Antiulcer activity in albino Sprague-Dawley rat reserpine ulcer model assessed as prevention of reserpine-induced gastric lesions by measuring ulcer index scores at 10 mg/kg, po administered 30 mins prior to reserpine challenge measured after 6 hrs; format: functional; settings: Stomach
Rattus norvegicus [24] = assay: Antisecretory activity in Sprague-Dawley rat assessed as decrease in volume at 50 mg/kg, po administered 30 mins prior to pylorus ligation measured after 4 hrs relative to control; format: functional; set-up: scale not given: the % may be the effect or the level left
Rattus norvegicus [25] = assay: Antiulcer activity in albino Sprague-Dawley rat shay ulcer model assessed as ulcer index scores at 50 mg/kg administered intraduodenally post pyloric ligation measured after 18.5 hrs relative to vehicle-treated control; format: functional; settings: route intraduodenal
Rattus norvegicus [26] = assay: Antianxiety activity in Long-Evans rat assessed as reduction in motor activity at 1 mg/kg, po after 2 hrs relative to vehicle-treated control; format: functional; set-up: scale not given: the % may be the effect or the level left
Felis catus [27] = assay: Hypnotic activity in cat assessed as decrease in non-REM sleep time at 0.5 mg/kg administered orally through diet measured for 12 hrs by EEG analysis; format: functional; settings: route oral
Rattus norvegicus [28] = species: Rattus norvegicus; assay: animal or person; format: functional; settings: Charles River, route oral
Description: Antidiarrheal activity in Charles River rat assessed as inhibition of castor oil-induced diarrhea by measuring protected animals at 0.5 mg/kg, po administered 1 hr prior to castor oil challenge measured after 1 hr relative to vehicle-treated control

Rattus norvegicus [29] = assay: Antipsychotic activity in rat assessed as reduction of methamphetamine-induced hyperactivity at 20 mg/kg, po administered prior to methamphetamine challenge relative to vehicle-treated control; format: functional; set-up: scale not given: the % may be the effect or the level left
Rattus norvegicus [30] = assay: Antihypertensive activity in spontaneously hypertensive rat model assessed as reduction in blood pressure at 10 mg/kg, po after 3 hrs; format: functional; set-up: scale not given: the % may be the effect or the level left
Rattus norvegicus [31] = assay: Antiulcer activity in albino Sprague-Dawley rat stress ulcer model assessed as prevention of stress-induced gastric lesions by measuring ulcer index score at 10 mg/kg, po administered 30 mins prior to stress measured after 4 hrs; format: functional, Stomach
Rattus norvegicus [32] = assay: Antipsychotic activity in rat assessed as reduction of methamphetamine-induced hyperactivity at 10 mg/kg, po administered prior to methamphetamine challenge relative to vehicle-treated control; format: functional; set-up: scale not given: the % may be the effect or the level left
Rattus norvegicus [33] = assay: Antiulcer activity in albino Sprague-Dawley rat reserpine ulcer model assessed as prevention of reserpine-induced gastric lesions by measuring ulcer index scores at 50 mg/kg, po administered 30 mins prior to reserpine challenge measured after 6 hrs; format: functional, Stomach
Rattus norvegicus [34] = assay: Antiulcer activity in albino Sprague-Dawley rat stress ulcer model assessed as prevention of stress-induced gastric lesions by measuring ulcer index score at 40 mg/kg, po administered 30 mins prior to stress measured after 4 hrs; format: functional, Stomach
Rattus norvegicus [35] = assay: Antisecretory activity in Sprague-Dawley rat assessed as decrease in acid output at 50 mg/kg, po administered 30 mins prior to pylorus ligation measured after 4 hrs relative to control; format: functional; set-up: scale not given: the % may be the effect or the level left
Felis catus [36] = assay: Hypnotic activity in cat assessed as increase in non-REM sleep time at 0.25 mg/kg administered orally through diet measured for 12 hrs by EEG analysis; format: functional; settings: route oral
Rattus norvegicus [37] = assay: Antianxiety activity in Long-Evans rat assessed as reduction in motor activity at 4 mg/kg, po after 2 hrs relative to vehicle-treated control; format: functional; set-up: scale not given: the % may be the effect or the level left

Q: Which LD50 [1] does the source give for `CCCCCC(C)C(C)c1cc(O)c2c(c1)OC(C)(C)C1=C2CC(C)CC1` (configuration not stated) here?
A: The LD50 was at least 1000 mg/kg.

Q: And the minimal effective dose (Canis familiaris)?
A: Its minimal effective dose is 1 mg/kg.

Q: And the minimal effective dose (Rhesus monkey)?
A: The minimal effective dose was 10 mg/kg.

Q: And the Activity (Rattus norvegicus [2])?
A: Its Activity is 37%.

Q: And the Activity (Rattus norvegicus [3])?
A: Its Activity is 28%.

Q: What about the Activity (Rattus norvegicus [4]) of the same molecule?
A: The Activity was 19%.

Q: What about the Activity (Rattus norvegicus [5]) of the same molecule?
A: The Activity was 96%.

Q: And the Time (Felis catus [6])?
A: Its Time is 62 min.

Q: And the Activity (Mus musculus [7])?
A: Its Activity is 58%.

Q: And the Activity (Rattus norvegicus [8])?
A: Its Activity is 70%.

Q: What about the ED50 (Mus musculus [9]) of the same molecule?
A: The ED50 was 3 mg/kg.

Q: And the inhibition in vivo at 0.2 mg/kg (Rattus norvegicus [10])?
A: The inhibition in vivo at 0.2 mg/kg was 80%.

Q: What about the Activity (Mus musculus [11]) of the same molecule?
A: The Activity was 92%.

Q: What about the Activity (Rattus norvegicus [12]) of the same molecule?
A: Its Activity is 48%.

Q: What about the ED50 (Rattus norvegicus [13]) of the same molecule?
A: Its ED50 is 1.4 mg/kg.

Q: And the Time (Felis catus [14])?
A: Its Time is 122 min.

Q: And the inhibition in vivo at 0.1 mg/kg (Rattus norvegicus [15])?
A: The inhibition in vivo at 0.1 mg/kg was 50%.

Q: And the Activity (Mus musculus [16])?
A: Its Activity is 10 mg/kg.

Q: And the Activity (Rattus norvegicus [17])?
A: The Activity was 12%.

Q: What does the source list for `C#CCN1CCC2=C(C1)c1c(O)cc(C(C)CCCc3ccc(F)cc3)cc1OC2(C)C` (configuration not stated)?
A: Activity (Rattus norvegicus [18]): 15%; LD50 [1]: ≥ 1000 mg/kg; Activity (Rattus norvegicus [19]): Active; minimal effective dose (Canis familiaris): 1 mg/kg; Activity (Rattus norvegicus [20]): 22.2%; Activity (Rattus norvegicus [4]): 22%; Activity (Rattus norvegicus [21]): 12.8%; Time (Felis catus [22]): 45 min; Activity (Rattus norvegicus [23]): inactive; Activity (Rattus norvegicus [24]): 33.3%; UI (Rattus norvegicus [25]): 1.3; Activity (Rattus norvegicus [26]): 60%; Time (Felis catus [27]): -20 min; inhibition in vivo at 0.5 mg/kg (Rattus norvegicus [28]): 53%; Time (Felis catus [6]): 99 min; Activity (Rattus norvegicus [29]): 34%; Activity (Rattus norvegicus [30]): 30%; UI (Rattus norvegicus [31]): 1.7; Activity (Rattus norvegicus [32]): 8%; ED50 (Mus musculus [9]): 5.3 mg/kg; Activity (Mus musculus [11]): 47%; UI (Rattus norvegicus [33]): 1.5; UI (Rattus norvegicus [34]): 1.4; ED50 (Rattus norvegicus [13]): 3.7 mg/kg; Activity (Rattus norvegicus [35]): 42.9%; Time (Felis catus [36]): 45 min; Activity (Rattus norvegicus [37]): 77%; Activity (Rattus norvegicus [17]): 15%
